Among the test systems are A549 NSCLC; COLO 205 colon; HCT-15 colon; M19-MEL melanoma; MDA-MB-435; MOLT-4 leukemia; NCI/ADR-RES ovarian; OVCAR-5 ovarian; RXF-631 renal; SNB-78 CNS.
Common to all, as to assay: DTP human tumour cell line panel, 48 h

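Assay format: 96-well plates, 48-hour exposure. TGI marks complete inhibition of growth.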

The TGI is the concentration giving total growth inhibition.

Regarding `Cc1nc(-n2nc(-c3ccccc3)cc2-c2ccccc2)sc1C(=O)/C=C/c1ccc([N+](=O)[O-])cc1`, the TGI is above 100 µM with A549 NSCLC; above 80.6 µM with COLO 205 colon; above 61.9 µM in the experiment with HCT-15 colon; 98.9 µM with M19-MEL melanoma; 43.5 µM with MDA-MB-435; 51.5 µM with MOLT-4 leukemia. Moreover, the total growth inhibition concentration (TGI) in the experiment with NCI/ADR-RES ovarian, in the experiment with OVCAR-5 ovarian, in the experiment with RXF-631 renal and with SNB-78 CNS was above 100 µM throughout.

For the compound `COc1ccccc1NC(=O)CC(=O)n1nc(C)c(N=Nc2ccccc2Cl)c1C`, the TGI in the experiment with A549 NSCLC, with COLO 205 colon, with HCT-15 colon, in the experiment with M19-MEL melanoma, in the experiment on MDA-MB-435 and in the experiment with MOLT-4 leukemia was above 100 µM each time. The concentration for total growth inhibition (TGI) was above 100 µM in the experiment on NCI/ADR-RES ovarian, above 100 µM in the experiment with OVCAR-5 ovarian, above 31.6 µM with RXF-631 renal and 57.1 µM in the experiment on SNB-78 CNS.

As to `C[C@]12CCc3nonc3C1CC[C@@H]1C2CC[C@@]2(C)C1CC[C@@H]2O` (some centres undefined), the TGI in the experiment with A549 NSCLC, with COLO 205 colon, with HCT-15 colon, in the experiment on M19-MEL melanoma, in the experiment on MOLT-4 leukemia and with OVCAR-5 ovarian was above 100 µM throughout. Also, the TGI with RXF-631 renal and in the experiment on SNB-78 CNS was above 100 µM each time.

Regarding `COc1ccc(C[C@]23CCC(=O)N2CCc2cc(OC)c(O)cc23)cc1O`, the total growth inhibition concentration (TGI) with A549 NSCLC, in the experiment with COLO 205 colon, with HCT-15 colon, with M19-MEL melanoma, in the experiment on MOLT-4 leukemia and in the experiment on OVCAR-5 ovarian was above 100 µM throughout. In addition, the TGI with RXF-631 renal and in the experiment on SNB-78 CNS was above 100 µM throughout.

In the case of `CCOC(=O)CNC(=O)OCc1ccccc1`, the concentration for total growth inhibition (TGI) in the experiment with A549 NSCLC, with COLO 205 colon, in the experiment on HCT-15 colon, in the experiment with M19-MEL melanoma, in the experiment on MOLT-4 leukemia and with OVCAR-5 ovarian was above 100 µM in each case. Moreover, the TGI in the experiment on RXF-631 renal and in the experiment with SNB-78 CNS was above 100 µM each time.
